How the values were obtained:
[1] = molecular target: T1, IRE1a (Homo sapiens, UniProt O75460); assay: In vitro FRET assay (IRE1a cleavage of XBP1 RNA probe); type: biochemical; details: 2 nM SignalChem IRE1a, tested as Formic Acid Salt (37: HCl Salt)
T1 construct: purchased SignalChem
Procedure, shortened: Human

[2] = system: IRE1a; assay: IRE1a Endoribonuclease Nanoluciferase Assay (XBP1 luciferase reporter in 293T cells); type: cell-based, human; details: ER stressor, tested as Formic Acid Salt (37: HCl Salt)
Procedure, shortened: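 293T cells transiently transfected with a PGK-Luc2-P2A-XBP1u-Nanoluciferase-Pest reporter, replated after 6 h, then treated next day with ER stressors ± inhibitors. After lysis, firefly luminescence then nanoluciferase luminescence read sequentially (1000 ms integration each).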

T1 sequence (O75460 19-977): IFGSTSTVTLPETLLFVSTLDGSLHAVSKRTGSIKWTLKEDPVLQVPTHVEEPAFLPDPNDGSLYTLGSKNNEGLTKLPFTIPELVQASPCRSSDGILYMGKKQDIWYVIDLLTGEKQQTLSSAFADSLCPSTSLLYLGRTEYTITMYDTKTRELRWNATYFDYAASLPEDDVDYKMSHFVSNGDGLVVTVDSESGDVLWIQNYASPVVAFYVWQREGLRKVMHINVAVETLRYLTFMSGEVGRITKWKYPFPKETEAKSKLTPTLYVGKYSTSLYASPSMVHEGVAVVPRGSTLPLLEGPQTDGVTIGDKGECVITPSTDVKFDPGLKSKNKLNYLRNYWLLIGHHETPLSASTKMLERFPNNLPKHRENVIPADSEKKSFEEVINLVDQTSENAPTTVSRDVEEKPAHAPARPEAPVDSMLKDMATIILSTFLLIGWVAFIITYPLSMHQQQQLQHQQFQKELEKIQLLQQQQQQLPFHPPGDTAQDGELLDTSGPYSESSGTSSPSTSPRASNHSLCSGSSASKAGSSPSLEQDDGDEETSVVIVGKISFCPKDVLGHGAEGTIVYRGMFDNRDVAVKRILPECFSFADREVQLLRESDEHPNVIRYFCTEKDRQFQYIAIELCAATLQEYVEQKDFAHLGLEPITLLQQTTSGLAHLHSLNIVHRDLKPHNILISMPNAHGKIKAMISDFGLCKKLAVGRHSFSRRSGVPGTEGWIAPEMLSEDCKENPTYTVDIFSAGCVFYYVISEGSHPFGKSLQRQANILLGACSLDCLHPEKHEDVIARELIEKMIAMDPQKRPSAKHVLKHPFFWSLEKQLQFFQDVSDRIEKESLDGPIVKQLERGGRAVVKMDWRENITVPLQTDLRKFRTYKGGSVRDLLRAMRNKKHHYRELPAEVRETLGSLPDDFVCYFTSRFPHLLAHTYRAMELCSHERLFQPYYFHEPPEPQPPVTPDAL

| SMILES | IC50 [1] | EC50 [2] | EC50 ([2]; Homo sapiens, HEK-293T) |
| --- | --- | --- | --- |
| CCc1cc(-c2ccc(NS(=O)(=O)c3ccccc3Cl)c(F)c2)cc2cnc(N[C@H]3CC4C[C@H](N)CC4C3)nc12 (stereo partly drawn) [Compound 83] | 5 to 50 nM | 50 to 100 nM | – |
| COc1nc(NS(=O)(=O)c2ccccc2Cl)ccc1-c1cc(C(F)(F)F)c2nc(N[C@H]3CC[C@H](N(C)C)CC3)ncc2c1 [Compound 135, 2-chloro-N-(5-(2-(((1r,4r)-4-(dimethylamino)cyclohexyl)amino)-8-(trifluoromethyl)quinazolin-6-yl)-6-methoxypyridin-2-yl)benzenesulfonamide] | ≤ 5 nM | – | ≤ 5 nM |
| CCc1cc(-c2cc(NS(=O)(=O)c3ccccc3Cl)no2)cc2cnc(N[C@H]3CC[C@H](N)CC3)nc12 [Compound 44, N-(5-(2-(((1r,4r)-4-aminocyclohexyl)amino)-8-ethylquinazolin-6-yl)isoxazol-3-yl)-2-chlorobenzene-sulfonamide] | ≤ 5 nM | – | ≤ 5 nM |
| N[C@H]1CC[C@H](Nc2ncc3cc(-c4ccc(NS(=O)(=O)c5ccccc5Cl)cc4)ccc3n2)CC1 [Compound 26, N-(4-(2-(((1r,4r)-4-aminocyclohexyl)amino)quinazolin-6-yl)phenyl)-2-chlorobenzene-sulfonamide] | ≤ 5 nM | – | ≤ 5 nM |
| COc1nc(NS(=O)(=O)c2ccccc2Cl)ccc1-c1cc(C(C)(F)F)c2nc(N[C@H]3CC[C@H](N(C)C)CC3)ncc2c1 [Compound 124, 2-chloro-N-(5-(8-(1,1-difluoroethyl)-2-(((1r,4r)-4-(dimethylamino)cyclohexyl)amino)quinazolin-6-yl)-6-methoxypyridin-2-yl)benzenesulfonamide] | ≤ 5 nM | – | ≤ 5 nM |
| CCCc1cc(-c2cc(NS(=O)(=O)c3ccccc3Cl)nn2C)cc2cnc(N[C@H]3CC[C@H](N)CC3)nc12 [Compound 47, N-(5-(2-(((1r,4r)-4-aminocyclohexyl)amino)-8-propylquinazolin-6-yl)-1-methyl-1H-pyrazol-3-yl)-2-chlorobenzene-sulfonamide] | ≤ 5 nM | – | 5 to 50 nM |
| CCc1cc(-c2cnc(NS(=O)(=O)c3ccccc3Cl)c(F)c2)cc2cnc(N[C@H]3CC[C@H](N(C)C)CC3)nc12 [Compound 95, 2-chloro-N-(5-(2-(((1r,4r)-4-(dimethylamino)cyclohexyl)amino)-8-ethylquinazolin-6-yl)-3-fluoropyridin-2-yl)benzenesulfonamide] | ≤ 5 nM | – | ≤ 5 nM |
| COc1nc(NS(=O)(=O)c2ccccc2Cl)c(F)cc1-c1cc(C)c2nc(N[C@H]3CC[C@H](N(C)C)CC3)ncc2c1 [Compound 145, 2-chloro-N-(5-(2-(((1r,4r)-4-(dimethylamino)cyclohexyl)amino)-8-methylquinazolin-6-yl)-3-fluoro-6-methoxypyridin-2-yl)benzenesulfonamide] | ≤ 5 nM | – | ≤ 5 nM |
| CCc1cc(-c2ccc(NS(=O)(=O)c3ccccc3Cl)c(F)c2)cc2cnc(N[C@@H]3CCC[C@H](N)C3)nc12 [Compound 72, N-(4-(2-(((1R,3S)-3-aminocyclohexyl)amino)-8-ethylquinazolin-6-yl)-2-fluorophenyl)-2-chlorobenzene-sulfonamide] | ≤ 5 nM | – | 100 to 10000 nM |
| CCc1cc(-c2ccc(NS(=O)(=O)c3ccccc3Cl)nc2C)cc2cnc(N[C@H]3CC[C@H](N(C)CC)CC3)nc12 [Compound 125, 2-chloro-N-(5-(8-ethyl-2-(((1r,4r)-4-(ethyl(methyl)amino)cyclohexyl)amino)quinazolin-6-yl)-6-methylpyridin-2-yl)benzenesulfonamide] | ≤ 5 nM | – | ≤ 5 nM |
| CCc1cc(-c2ccc(NS(=O)(=O)c3ccccc3Cl)c(F)c2)cc2cnc(N[C@@H]3CC[C@H](N)C3)nc12 [Compound 79, N-(4-(2-(((1R,3S)-3-aminocyclopentyl)amino)-8-ethylquinazolin-6-yl)-2-fluorophenyl)-2-chlorobenzene-sulfonamide] | ≤ 5 nM | – | 5 to 50 nM |
| CCc1cc(-c2ccc(NS(=O)(=O)c3ccccc3Cl)nc2C)cc2cnc(N[C@H]3CC[C@H](N(C)CC4CCC4)CC3)nc12 [Compound 130, 2-chloro-N-(5-(2-(((1r,4r)-4-((cyclobutylmethyl)(methyl)amino)cyclohexyl)amino)-8-ethylquinazolin-6-yl)-6-methylpyridin-2-yl)benzenesulfonamide] | ≤ 5 nM | – | ≤ 5 nM |
| CCc1cc(-c2cnc(NS(=O)(=O)c3ccccc3Cl)cc2OC)cc2cnc(N[C@H]3CC[C@H](N)CC3)nc12 [Compound 92, N-(5-(2-(((1r,4r)-4-aminocyclohexyl)amino)-8-ethylquinazolin-6-yl)-4-methoxypyridin-2-yl)-2-chlorobenzene-sulfonamide] | ≤ 5 nM | – | 100 to 10000 nM |
| N[C@H]1CC[C@H](Nc2cc3ccc(-c4ccc(NS(=O)(=O)c5ccccc5Cl)c(F)c4)cc3cn2)CC1 [Compound 57, N-(4-(3-(((1r,4r)-4-aminocyclohexyl)amino)isoquinolin-7-yl)-2-fluorophenyl)-2-chlorobenzene-sulfonamide] | ≤ 5 nM | – | ≤ 5 nM |
| COc1nc(NS(=O)(=O)c2ccccc2Cl)c(F)cc1-c1cc(F)c2nc(N[C@H]3CC[C@H](N(C)C)CC3)ncc2c1 [Compound 155, 2-chloro-N-(5-(2-(((1r,4r)-4-(dimethylamino)cyclohexyl)amino)-8-fluoroquinazolin-6-yl)-3-fluoro-6-methoxypyridin-2-yl)benzenesulfonamide] | ≤ 5 nM | – | 50 to 100 nM |
| CCc1cc(-c2ccc(NS(=O)(=O)c3ccccc3Cl)nn2)cc2cnc(N[C@H]3CC[C@H](N(C)C)CC3)nc12 [Compound 64] | ≤ 5 nM | – | ≤ 5 nM |
| CCc1cc(-c2cnc(NS(=O)(=O)c3ccccc3Cl)nc2OC)cc2cnc(N[C@H]3CC[C@H](N(C)C)CC3)nc12 [Compound 154, 2-chloro-N-(5-(2-(((1r,4r)-4-(dimethylamino)cyclohexyl)amino)-8-ethylquinazolin-6-yl)-4-methoxypyrimidin-2-yl)benzenesulfonamide] | ≤ 5 nM | – | ≤ 5 nM |
| CCc1cc(-c2cc(OC)c(NS(=O)(=O)c3ccccc3Cl)nn2)cc2cnc(N[C@H]3CC[C@H](N)CC3)nc12 [Compound 66, N-(6-(2-(((1r,4r)-4-aminocyclohexyl)amino)-8-ethylquinazolin-6-yl)-4-methoxypyridazin-3-yl)-2-chlorobenzene-sulfonamide] | ≤ 5 nM | – | 50 to 100 nM |
| COCc1cc(-c2ccc(NS(=O)(=O)c3ccccc3Cl)nc2OC)cc2cnc(N[C@H]3CC[C@H](N(C)C)CC3)nc12 [Compound 137, 2-chloro-N-(5-(2-(((1r,4r)-4-(dimethylamino)cyclohexyl)amino)-8-(methoxymethyl)quinazolin-6-yl)-6-methoxypyridin-2-yl)benzenesulfonamide] | ≤ 5 nM | – | ≤ 5 nM |
| CCc1c(F)c(-c2ccc(NS(=O)(=O)c3ccccc3Cl)nc2C)cc2cnc(N[C@H]3CC[C@H](N(C)C)CC3)nc12 [Compound 161, 2-chloro-N-(5-(2-(((1r,4r)-4-(dimethylamino)cyclohexyl)amino)-8-ethyl-7-fluoroquinazolin-6-yl)-6-methylpyridin-2-yl)benzenesulfonamide] | ≤ 5 nM | – | ≤ 5 nM |
| CCc1cc(-c2ccc(NS(=O)(=O)c3ccccc3Cl)c(F)c2)cc2cnc(N[C@@H]3CC[C@@H](N)[C@H](C)C3)nc12 [Compound 74, N-(4-(2-(((1R,3R,4R)-4-amino-3-methylcyclohexyl)amino)-8-ethylquinazolin-6-yl)-2-fluorophenyl)-2-chlorobenzene-sulfonamide] | ≤ 5 nM | – | ≤ 5 nM |
| N[C@H]1CC[C@H](Nc2ncc3cc(-c4c(F)cc(NS(=O)(=O)c5ccccc5Cl)cc4F)ccc3n2)CC1 [Compound 62, N-(4-(2-(((1r,4r)-4-aminocyclohexyl)amino)quinazolin-6-yl)-3,5-difluorophenyl)-chlorobenzene-sulfonamide] | ≤ 5 nM | – | 5 to 50 nM |
| CCc1c(F)c(-c2cc(F)c(NS(=O)(=O)c3ccccc3Cl)nc2C)cc2cnc(N[C@H]3CC[C@H](N(C)C)CC3)nc12 [Compound 162, 2-chloro-N-(5-(2-(((1r,4r)-4-(dimethylamino)cyclohexyl)amino)-8-ethyl-7-fluoroquinazolin-6-yl)-3-fluoro-6-methylpyridin-2-yl)benzenesulfonamide] | ≤ 5 nM | – | ≤ 5 nM |
| N[C@H]1CC2C[C@@H](Nc3ncc4cc(-c5ccc(NS(=O)(=O)c6ccccc6Cl)c(F)c5)ccc4n3)CC2C1 (stereo partly drawn) [Compound 85, N-(4-(2-(((2s,5s)-5-aminooctahydro-pentalen-2-yl)amino)quinazolin-6-yl)-2-fluorophenyl)-2-chlorobenzene-sulfonamide] | ≤ 5 nM | – | 100 to 10000 nM |
| CCc1cc(-c2ccc(NS(=O)(=O)c3ccccc3C)nc2OC)cc2cnc(N[C@H]3CC[C@H](N(C)C)CC3)nc12 [Compound 119, N-(5-(2-(((1r,4r)-4-(dimethylamino)cyclohexyl)amino)-8-ethylquinazolin-6-yl)-6-methoxypyridin-2-yl)-2-methylbenzenesulfonamide] | ≤ 5 nM | – | ≤ 5 nM |
| N[C@H]1CC[C@H](Nc2ncc3cc(-c4cc(F)c(NS(=O)(=O)c5ccccc5Cl)cc4F)ccc3n2)CC1 [Compound 53, N-(4-(2-(((1r,4r)-4-aminocyclohexyl)amino)quinazolin-6-yl)-2,5-difluorophenyl)-2-chlorobenzene-sulfonamide] | ≤ 5 nM | – | ≤ 5 nM |
| CCc1cc(-c2ccc(NS(=O)(=O)c3ccccc3Cl)nc2OC)cc2cnc(N[C@H]3CC[C@H](N(C)C)CC3)nc12 [Compound 99, 2-chloro-N-(5-(2-(((1r,4r)-4-(dimethylamino)cyclohexyl)amino)-8-ethylquinazolin-6-yl)-6-methoxypyridin-2-yl)benzenesulfonamide] | ≤ 5 nM | – | ≤ 5 nM |

From patent publication US12071424B2, “IRE1 small molecule inhibitors” (Cornell University, priority 2017, dated 2024)
